Source: patent publication US20210317090A1, “AMINO ACID DEPLETION AGENTS AS ANTIPROLIFERATIVE AGENTS” (University of Central Florida Research Foundation, Inc., priority 2018, published 2021)

Tested on: L3.6pl cells
Test: Analytes in supernatant of L3.6pl cells (LCMS)
Assay type: cell-based, human
Details: 72 h
Source text: One way to affect both spermidine and spermine pools is to decrease methionine supply, which in turn would inhibit the formation of the decarboxylated S-adenosylmethionine needed to provide the aminopropyl fragment required for spermidine and spermine synthesis. Since methionine, leucine and phenylalanine all use the LAT1/SLC3A2 transporter to enter cells, it was hypothesized that 10 was inhibiting LAT-1 mediated amino acid import. To test this hypothesis, the development of various embodiments involved measuring the amino acid concentrations in the supernatants of cells incubated with compound 10 at 2 and 5 μM for 72 h.
This example illustrates aspects according to various embodiments pertaining to a 72 h experiment with Compound 10 in L3.6pl cells. Ten milliliters of a cell suspension containing L3.6pl human pancreatic cancer cells (50,000 cells/mL) and aminoguanidine ([…]) were placed in treated plastic Petri dishes (d=9 cm) and incubated overnight at 37° C. After 24 h, the cells were dosed with compound 10 at 2 μM, 5 μM, or 7 μM. (Note: Stock solutions of 10 at 2, 5, and 7 mM were dissolved in phosphate buffered saline (PBS) and were filtered through a 0.2 μm filter prior to use. The experiments were maintained with a total volume of 10.01 mL where 10 mL of the cell suspension was placed in a plastic dish and each compound or the equivalent PBS volume was added to make up the total volume 10.01 mL for each dish. For example, for the control experiment PBS (10 μL) was added to make up the total volume (10 mL+10 μL=10.01 mL). After 72 h incubation, the cells were collected first by pipetting off the supernatant containing floating dead cells from the culture dish as well as media and placing them into 15 mL tubes. The supernatant containing floating cells was centrifuged (4 min at 1,000 rpm). The cell-free supernatant (supernatant #1) was collected into a new 15 mL tube and quantified (˜8.6 mL) and was then stored frozen and was later quantified by LCMS to investigate the media composition of particular polyamine and amino acid analytes. The attached cells on the dish were washed with PBS (5 mL). The PBS wash was removed by suction and additional PBS (2 mL) was added and again suctioned off to provide twice-washed cells still adhered to the dish. Trypsin (2 mL) was then added to each dish and incubated (3-5 min) until all the cells were detached. Fresh media (8 mL) was added to quench the trypsin. The cell solutions were pipetted into separate 15 mL tubes and centrifuged (4 min at 1,000 rpm). The resulting supernatant was removed to provide a pellet. The pellet was suspended in PBS (10 mL) and was counted by a hemocytometer to provide cell counts for each experimental condition. The pellet was then centrifuged (4 min at 1,000 rpm) and the supernatant removed and the remaining pellet was quantified via protein and polyamine analysis.
This example illustrates aspects according to various embodiments pertaining to an LCMS Analysis. The respective supernatant (10 μL) was injected on a Thermo HPLC system equipped with PAL CTC plate sampler (96-well plate), Dionex Ultimate 3000 binary pump (flow rate at 0.25 mL/min), Dionex Ultimate 3000 thermostatted column compartment (temperature at 40° C.), Thermo Endura Mass Spectrometer (ESI source), using Thermo Scientific Accucore C18 (2.6 μm, 2.1×50 mm, 100 Å) column under a gradient of acetonitrile w/0.1% heptafluorobutyric acid (HFBA) in H2O w/0.1% HFBA from 2% at minute 0 to 60% at minute 5.0, to 99% at minute 6.5 held until minute 7.5 and then reduced back to 2% until minute 10 to re-equilibrate the column for the next injection. The peak area was measured and analyte amounts were calculated referring to analyte calibration curves. Analyte levels were adjusted with internal standard concentration for extraction efficiency. Peak height measurements were conducted referring to values obtained for standards of known concentrations. […]

Structure (SMILES): CC(C)CCN1CCN(C(CNCc2ccccc2)CC2CCCCC2)CC1CC(C)C.Cl.Cl.Cl (stereo not drawn) [Compound 10, Benzyl-{3-cyclohexyl-2-[3-isobutyl-4-(3-methyl-butyl)-piperazin-1-yl]-propyl}-amine trihydrochloride salt]
- Supernatant level Acetyl spermidine (2 μM): 1649 ± 18 pmoles/mg protein
- Supernatant level Acetyl spermine (2 μM): 49 ± 10 pmoles/mg protein
- Supernatant level Agmatine (2 μM): 297 ± 163 pmoles/mg protein
- Supernatant level Arginine (2 μM): 18396 ± 70 pmoles/mg protein
- Supernatant level Glutamic acid (2 μM): 20231 ± 649 pmoles/mg protein
- Supernatant level Leucine (2 μM): 15055 ± 1043 pmoles/mg protein
- Supernatant level Methionine (2 μM): 17686 ± 2432 pmoles/mg protein
- Supernatant level Ornithine (2 μM): 9249 ± 306 pmoles/mg protein
- Supernatant level Phenylalanine (2 μM): 11954 ± 828 pmoles/mg protein
- Supernatant level Putrescine (2 μM): 938 ± 70 pmoles/mg protein
- Supernatant level Spermidine (2 μM): 131 ± 26 pmoles/mg protein
- Supernatant level Spermine (2 μM): 2532 ± 406 pmoles/mg protein
- Supernatant level Acetyl spermidine (5 μM): 1706 ± 29 pmoles/mg protein
- Supernatant level Acetyl spermine (5 μM): 36 ± 4 pmoles/mg protein
- Supernatant level Agmatine (5 μM): 485 ± 176 pmoles/mg protein
- Supernatant level Arginine (5 μM): 43243 ± 2047 pmoles/mg protein
- Supernatant level Glutamic acid (5 μM): 34033 ± 540 pmoles/mg protein
- Supernatant level Leucine (5 μM): 202092 ± 23817 pmoles/mg protein
- Supernatant level Methionine (5 μM): 64036 ± 5454 pmoles/mg protein
- Supernatant level Ornithine (5 μM): 15951 ± 118 pmoles/mg protein
- Supernatant level Phenylalanine (5 μM): 160462 ± 18910 pmoles/mg protein
- Supernatant level Putrescine (5 μM): 2224 ± 98 pmoles/mg protein
- Supernatant level Spermidine (5 μM): 167 ± 32 pmoles/mg protein
- Supernatant level Spermine (5 μM): 2690 ± 889 pmoles/mg protein
